Tested on: MDA-MB-468 multi-cell spheroids, viability
Assay: Anticancer human tumor MDA-MB-468 cell line growth inhibition [IpAb];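 note: spheroids exposed to agents for seven days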;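 for viability, T/C: 100% = DMSO vehicle control viability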
Conditions: for IC50: curve of first compound; for viability, T/C: stronger effect = lower value
Source text: Combinatorial screen of targeted agents with ipatasertib and abemaciclib in multi-cell type tumor spheroids
A high-throughput screen of multi-cell type tumor spheroids was designed to identify active combinations of targeted small molecules and ipatasertib or abemaciclib. Complex spheroids include a stromal component modeled by human endothelial cells (HUVEC) and fibroblasts modeled by human mesenchymal stem cells (MSCs). The concentration ranges selected for each drug and investigational agent were based upon clinically achievable concentrations if the clinical Cmax of the agent was known.
Compounds. The drugs and investigational agents: ipatasertib (NSC767898), abemaciclib(NSC768073), selumetinib (NSC741078), trametinib (758246), adavosertib (NSC754352), everolimus (NSC733504), sapanisertib (NSC764658), vemurafenib (NSC761431), venetoclax (NSC766270), copanlisib (NSC809693), apelisib (NSC765974), palbociblib (NSC758247), vemurafenib (NSC761431), dabrafenib (NSC764134), ravoxertinib (NSC781343), BMS-387032 (NSC767048), sotorasib (NSC818433), talazoparib (NSC767125) and afursertib (NSC778305), were obtained from the National Cancer Institute (NCI) Developmental Therapeutics Program Chemical Repository. The FDA-approved anticancer drug set is available from the NCI Developmental Therapeutics Program. […] The stock solutions were prepared in dimethyl sulfoxide (DMSO, Sigma-Aldrich, St. Louis, MO, cat. D2650) at 800-fold the tested concentration and stored at -70 degrees C prior to their use. All drugs and investigational agents were tested over a range starting from a high concentration at or near the clinical Cmax and decreasing in half-log increments. If the clinical Cmax for an agent had not been determined, the highest concentration tested was 10 microM.
NCI60 Cell Culture. NCI60 cell lines were obtained from the NCI Developmental Therapeutics Program Tumor Repository. For each lot of cells, the Repository performed Applied Biosystems AmpFLSTR Identifiler testing with PCR amplification to confirm consistency with the published Identifier STR profile for each cell line. Cells were kept in continuous culture for no more than 20 passages. The optimal seeding densities for each of the cell lines at each time point assessed were determined prior to performing the concentration response studies. Briefly, the NCI60 human tumor lines were grown as monolayers in RPMI 1640 medium supplemented with 10% FBS and 2 mmol/L L-glutamine.
An additional 9 lines were from the NCI60 cell line panel including MDA-MB-231 breast carcinoma, MDA-MB-468 breast carcinoma, MCF7 breast carcinoma, Hs578T breast carcinoma, MALME-3M melanoma, SK-MEL-2 melanoma, SK-OV-3 ovarian carcinoma, DU-145 prostate carcinoma, PC-3 prostate carcinoma, all cell lines along with major genetic alterations are listed on Table 2. Pooled donor human umbilical vein endothelial cells (HUVEC, Lonza, cat. CC-2519) and human mesenchymal stem cells (hMSC, Lonza, cat. PT-2501) were purchased from Lonza (Walkersville, MD).
PDMR cell lines were grown in complete medium (DC medium): Dulbecco's modified Eagle's medium (DMEM)/F12 supplemented with 5% fetal bovine serum (FBS), 2 mM L-glutamine, 100 U/mL penicillin and 100 µg/ml streptomycin, 0.4 µg/ml hydrocortisone, 10 ng/ml epidermal growth factor (EGF) recombinant human protein, 24 µg/mL adenine, and 0.1 mg/mL primocin. During culture from frozen stock vials, PDMR cells were cultured in the same medium containing 10 µM Y-27632 (see Table 3). The PDCs were cultured in complete DMEM/F12 media without 10 microM Y-27632 dihydrochloride for at least two passages prior to the screen. The pooled donor HUVEC and hMSC were cultured in endothelial cell growth medium 2 (PromoCell, Heidelberg, Germany, cat. C-22011) and mesenchymal stem cell growth medium 2 (PromoCell, cat. C-28009), respectively. For all experiments, HUVEC and hMSC were used at passages </=5.
[…]

Q: With `C=CCn1c(=O)c2cnc(Nc3ccc(N4CCN(C)CC4)cc3)nc2n1-c1cccc(C(C)(C)O)n1` + CC(C)NCC(C(=O)N1CCN(c2ncnc3c2C(C)CC3O)CC1)c1ccc(Cl)cc1 as the compound, how does the IC50 (second compound 0.1 µM) read?
A: The IC50 was 383 nM.

Q: What about the IC50 (second compound 0.316 µM) of the same compound?
A: The IC50 was 212 nM.

Q: What about the IC50 (second compound 1 µM) of the same compound?
A: The IC50 was 60.2 nM.

Q: And the IC50 (second compound 3.16 µM)?
A: Its IC50 is < 31.6 nM.

Q: What about the IC50 (second compound 10 µM) of the same compound?
A: The IC50 was < 31.6 nM.

Q: And the viability, T/C (second compound 0.1 µM, first compound 0.0316 µM)?
A: The viability, T/C was 101%.

Q: What about the viability, T/C (second compound 0.1 µM, first compound 0.1 µM) of the same compound?
A: Its viability, T/C is 89.3%.

Q: What about the viability, T/C (second compound 0.1 µM, first compound 0.316 µM) of the same compound?
A: Its viability, T/C is 59.5%.

Q: What about the viability, T/C (second compound 0.1 µM, first compound 1 µM) of the same compound?
A: Its viability, T/C is 5.21%.

Q: And the viability, T/C (second compound 0.1 µM, first compound 3.16 µM)?
A: Its viability, T/C is 3.03%.

Q: What about the viability, T/C (second compound 0.1 µM, first compound 10 µM) of the same compound?
A: The viability, T/C was 2.74%.

Q: What about the viability, T/C (second compound 0.316 µM, first compound 0.0316 µM) of the same compound?
A: Its viability, T/C is 78.6%.

Q: What about the viability, T/C (second compound 0.316 µM, first compound 0.1 µM) of the same compound?
A: Its viability, T/C is 63.7%.

Q: What about the viability, T/C (second compound 0.316 µM, first compound 0.316 µM) of the same compound?
A: The viability, T/C was 42.6%.

Q: What about the viability, T/C (second compound 0.316 µM, first compound 1 µM) of the same compound?
A: Its viability, T/C is 2.96%.

Q: What about the viability, T/C (second compound 0.316 µM, first compound 3.16 µM) of the same compound?
A: Its viability, T/C is 3.13%.

Q: And the viability, T/C (second compound 0.316 µM, first compound 10 µM)?
A: Its viability, T/C is 2.21%.

Q: What about the viability, T/C (second compound 1 µM, first compound 0.0316 µM) of the same compound?
A: Its viability, T/C is 59.4%.

Q: And the viability, T/C (second compound 1 µM, first compound 0.1 µM)?
A: Its viability, T/C is 40.8%.

Q: And the viability, T/C (second compound 1 µM, first compound 0.316 µM)?
A: The viability, T/C was 25.7%.

Q: And the viability, T/C (second compound 1 µM, first compound 1 µM)?
A: Its viability, T/C is 2.27%.

Q: What about the viability, T/C (second compound 1 µM, first compound 3.16 µM) of the same compound?
A: Its viability, T/C is 2.93%.

Q: And the viability, T/C (second compound 1 µM, first compound 10 µM)?
A: Its viability, T/C is 1.68%.

Q: And the viability, T/C (second compound 3.16 µM, first compound 0.0316 µM)?
A: Its viability, T/C is 32.1%.

Q: And the viability, T/C (second compound 3.16 µM, first compound 0.1 µM)?
A: The viability, T/C was 27.2%.

Q: What about the viability, T/C (second compound 3.16 µM, first compound 0.316 µM) of the same compound?
A: The viability, T/C was 15.7%.

Q: What about the viability, T/C (second compound 3.16 µM, first compound 1 µM) of the same compound?
A: The viability, T/C was 1.82%.

Q: And the viability, T/C (second compound 3.16 µM, first compound 3.16 µM)?
A: The viability, T/C was 3.18%.

Q: What about the viability, T/C (second compound 3.16 µM, first compound 10 µM) of the same compound?
A: Its viability, T/C is 1.47%.

Q: What about the viability, T/C (second compound 10 µM, first compound 0.0316 µM) of the same compound?
A: Its viability, T/C is 17.8%.

Q: And the viability, T/C (second compound 10 µM, first compound 0.1 µM)?
A: Its viability, T/C is 14%.

Q: And the viability, T/C (second compound 10 µM, first compound 0.316 µM)?
A: Its viability, T/C is 9.24%.

Q: What about the viability, T/C (second compound 10 µM, first compound 1 µM) of the same compound?
A: The viability, T/C was 1.81%.

Q: And the viability, T/C (second compound 10 µM, first compound 3.16 µM)?
A: The viability, T/C was 2.55%.

Q: And the viability, T/C (second compound 10 µM, first compound 10 µM)?
A: Its viability, T/C is 1.3%.

Q: With `Cn1cnc2c(F)c(Nc3ccc(Br)cc3Cl)c(C(=O)NOCCO)cc21` + CC(C)NCC(C(=O)N1CCN(c2ncnc3c2C(C)CC3O)CC1)c1ccc(Cl)cc1 as the compound, how does the IC50 (second compound 0.1 µM) read?
A: The IC50 was 435 nM.

Q: And the IC50 (second compound 0.316 µM)?
A: Its IC50 is 54.8 nM.

Q: And the IC50 (second compound 1 µM)?
A: Its IC50 is < 9.49 nM.

Q: And the IC50 (second compound 3.16 µM)?
A: The IC50 was < 9.49 nM.

Q: And the IC50 (second compound 10 µM)?
A: Its IC50 is < 9.49 nM.

Q: What about the viability, T/C (second compound 0.1 µM, first compound 0.00949 µM) of the same compound?
A: The viability, T/C was 72.6%.

Q: What about the viability, T/C (second compound 0.1 µM, first compound 0.03 µM) of the same compound?
A: The viability, T/C was 72.2%.

Q: What about the viability, T/C (second compound 0.1 µM, first compound 0.0949 µM) of the same compound?
A: The viability, T/C was 63.4%.

Q: And the viability, T/C (second compound 0.1 µM, first compound 0.3 µM)?
A: Its viability, T/C is 53.6%.

Q: And the viability, T/C (second compound 0.1 µM, first compound 0.949 µM)?
A: The viability, T/C was 41.2%.

Q: And the viability, T/C (second compound 0.1 µM, first compound 3 µM)?
A: The viability, T/C was 21.2%.

Q: What about the viability, T/C (second compound 0.316 µM, first compound 0.00949 µM) of the same compound?
A: The viability, T/C was 66.3%.

Q: What about the viability, T/C (second compound 0.316 µM, first compound 0.03 µM) of the same compound?
A: The viability, T/C was 49%.

Q: What about the viability, T/C (second compound 0.316 µM, first compound 0.0949 µM) of the same compound?
A: The viability, T/C was 46.7%.

Q: And the viability, T/C (second compound 0.316 µM, first compound 0.3 µM)?
A: The viability, T/C was 35%.

Q: And the viability, T/C (second compound 0.316 µM, first compound 0.949 µM)?
A: The viability, T/C was 28.8%.

Q: And the viability, T/C (second compound 0.316 µM, first compound 3 µM)?
A: The viability, T/C was 8.58%.

Q: And the viability, T/C (second compound 1 µM, first compound 0.00949 µM)?
A: The viability, T/C was 50.4%.

Q: And the viability, T/C (second compound 1 µM, first compound 0.03 µM)?
A: The viability, T/C was 38.7%.

Q: What about the viability, T/C (second compound 1 µM, first compound 0.0949 µM) of the same compound?
A: The viability, T/C was 41.4%.

Q: What about the viability, T/C (second compound 1 µM, first compound 0.3 µM) of the same compound?
A: The viability, T/C was 24.2%.

Q: And the viability, T/C (second compound 1 µM, first compound 0.949 µM)?
A: The viability, T/C was 16.6%.

Q: What about the viability, T/C (second compound 1 µM, first compound 3 µM) of the same compound?
A: The viability, T/C was 3.5%.

Q: And the viability, T/C (second compound 3.16 µM, first compound 0.00949 µM)?
A: The viability, T/C was 34.8%.

Q: And the viability, T/C (second compound 3.16 µM, first compound 0.03 µM)?
A: Its viability, T/C is 28.4%.

Q: What about the viability, T/C (second compound 3.16 µM, first compound 0.0949 µM) of the same compound?
A: The viability, T/C was 22.2%.

Q: What about the viability, T/C (second compound 3.16 µM, first compound 0.3 µM) of the same compound?
A: Its viability, T/C is 18%.

Q: And the viability, T/C (second compound 3.16 µM, first compound 0.949 µM)?
A: Its viability, T/C is 5.62%.

Q: What about the viability, T/C (second compound 3.16 µM, first compound 3 µM) of the same compound?
A: The viability, T/C was 0.63%.

Q: What about the viability, T/C (second compound 10 µM, first compound 0.00949 µM) of the same compound?
A: The viability, T/C was 13.7%.

Q: What about the viability, T/C (second compound 10 µM, first compound 0.03 µM) of the same compound?
A: The viability, T/C was 13.5%.

Q: And the viability, T/C (second compound 10 µM, first compound 0.0949 µM)?
A: Its viability, T/C is 7.27%.

Q: What about the viability, T/C (second compound 10 µM, first compound 0.3 µM) of the same compound?
A: The viability, T/C was 3.11%.

Q: What about the viability, T/C (second compound 10 µM, first compound 0.949 µM) of the same compound?
A: Its viability, T/C is 0.84%.

Q: And the viability, T/C (second compound 10 µM, first compound 3 µM)?
A: The viability, T/C was 0.43%.

Source: PubChem BioAssay AID2060326 (Molecular Pharmacology Branch, DTP, NCI, 2025)
